# Like-named read-outs stand apart in the source and are kept apart here.
# Molecular target: T1, PKMYT1 enzyme (Homo sapiens, UniProt Q99640)
# T1 construct: purchased Thermo Scientific A33387
# T1 sequence (Q99640 1-499): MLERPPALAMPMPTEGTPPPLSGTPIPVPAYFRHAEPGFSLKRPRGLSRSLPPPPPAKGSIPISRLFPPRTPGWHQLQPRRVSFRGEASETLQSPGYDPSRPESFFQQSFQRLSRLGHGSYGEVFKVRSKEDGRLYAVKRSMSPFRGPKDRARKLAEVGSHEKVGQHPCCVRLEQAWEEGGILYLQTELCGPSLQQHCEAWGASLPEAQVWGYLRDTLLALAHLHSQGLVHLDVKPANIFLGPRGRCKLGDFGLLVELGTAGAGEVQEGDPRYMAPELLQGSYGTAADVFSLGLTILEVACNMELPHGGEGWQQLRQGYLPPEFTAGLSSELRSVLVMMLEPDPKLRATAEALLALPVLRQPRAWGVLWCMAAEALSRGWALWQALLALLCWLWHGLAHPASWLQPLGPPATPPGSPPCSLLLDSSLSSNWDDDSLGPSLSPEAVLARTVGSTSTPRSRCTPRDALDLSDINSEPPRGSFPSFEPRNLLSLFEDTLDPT
# Experiment: PKMYT1 enzyme inhibition activity, ADP-GLO method
# Type: biochemical
# [1] = PKMYT1 enzyme 10 nM, ATP 5 µM, 37°C 90 minutes; read-out: ADP-GLO IC50
# [2] = read-out: ADP-GLO IC50; PKMYT1 enzyme 10 nM, ATP 5 µM, 37°C 90 minutes
# Description: Enzyme inhibition activity of compounds of the present disclosure
# The enzyme activity of some of the example compounds was verified using the ADP-GLO method.
# PKMYT1 enzyme protein was purchased from Thermo Scientific (Cat. No.: A33387), and the ADP-GLO kit was purchased from Promega (Cat. No.: V9103).
# PKMYT1 enzyme activity reaction buffer: 70 mM HEPES, 3 mM MgCl2, 3 mM MnCl2, 50 µg mL-1PEG20000, 3 µM sodium orthovanadate, 1.2 mM DTT.
# The reaction plate with the added compounds was centrifuged at 2500 rpm for 1 minute.
# The prepared enzyme solution was added to the reaction plate, 5 µL per well, and the final concentration of enzyme was 10 nM. The reaction plate was centrifuged at 1000 rpm for 1 minute. The reaction plate was placed in an incubator at 37°C for 15 minutes.
# The prepared ATP substrate solution was added to the reaction plate, 5 µL per well, and the final concentration of ATP was 5 µM. The reaction plate was centrifuged at 1000 rpm for 1 minute. After sealing the plate with aluminum foil, the plate was placed in an incubator and the reaction was carried out at 37°C for 90 minutes.
# 10 µL of ADP-glo™ reagent was added to stop the kinase reaction and consume unconsumed ATP, leaving only ADP and a very low ATP background. The reaction plate was centrifuged at 1000 rpm for 1 minute. After sealing the plate with aluminum foil, the reaction was carried out at room temperature for 60 minutes.
# ADP was converted to ATP by adding 20 µL of kinase detection reagent, and luciferase and luciferin were introduced to detect ATP. The reaction plate was centrifuged at 1000 rpm for 1 minute. After sealing the plate with aluminum foil, the reaction was carried out at room temperature for 60 minutes.
# The ADP-GLO luminescence signal values were read by the microplate reader PHERAstar, and the readings were analyzed.
SMILES,IC50 [1],IC50 [2]
Cc1ccc(O)c(C)c1-n1c(N)c(C(N)=O)c2cnc(-c3ccc(F)cc3)nc21 [Example 64],15.7 nM,–
Cc1ncc2c(C(N)=O)c(N)n(-c3c(C)cc(F)c(O)c3C)c2n1 [Example 65],23.8 nM,–
CCc1nc(C)nc2c1c(C(N)=O)c(N)n2-c1c(C)cc(F)c(O)c1C [Example 67],54.6 nM,–
CCc1ccc(O)c(C)c1-n1c(N)c(C(N)=O)c2cnc(C)nc21 [Example 68],299 nM,–
COc1nc(C)nc2c1c(C(N)=O)c(N)n2-c1c(C)ccc(O)c1C [Example 69],–,15.6 nM
Cc1cc2c(C(N)=O)c(N)n(-c3c(C)c(O)cc(F)c3C)c2c(F)c1C [Example 70],34 nM,–
Cc1ccc(O)c(C)c1-n1c(N)c(C(N)=O)c2c(F)nc(C)c(F)c21 [Example 72],9.72 nM,–
Cc1cc2c(C(N)=O)c(N)n(-c3c(C)cc(F)c(O)c3C)c2nc1F [Example 73],13.4 nM,–
Cc1cc2c(C(N)=O)c(N)n(-c3c(C)cc(F)c(O)c3C)c2nc1Cl [Example 74],7.11 nM,–
CCNc1ncc2c(C(N)=O)c(N)n(-c3c(C)ccc(O)c3C)c2n1 [Example 75],5.5 nM,–
Cc1ccc(O)c(C)c1-n1c(N)c(C(N)=O)c2cnc(NC3CCCC3)nc21 [Example 76],4.02 nM,–
Cc1ccc(O)c(C)c1-n1c(N)c(C(N)=O)c2cnc(NCC(F)F)nc21 [Example 77],20.2 nM,–
Cc1ccc(O)c(C)c1-n1c(N)c(C(N)=O)c2cnc(/C=C/C3CC3)nc21 [Example 78],–,8.23 nM
C/C=C/c1ncc2c(C(N)=O)c(N)n(-c3c(C)ccc(O)c3C)c2n1 [Example 79],4.74 nM,–
Cc1c(O)cc(F)c(C)c1-n1c(N)c(C(N)=O)c2cc(F)cnc21 [Example 82],5.43 nM,–
CCCN(CC)c1ncc2c(C(N)=O)c(N)n(-c3c(C)ccc(O)c3C)c2n1 [Example 83],41.8 nM,–
Cc1ccc(O)c(C)c1-n1c(N)c(C(N)=O)c2cnc(NC3CC3)nc21 [Example 84],5.28 nM,–

SMILES,IC50 [1],IC50 [2]
CNc1ncc2c(C(N)=O)c(N)n(-c3c(C)ccc(O)c3C)c2n1 [Example 85],6.7 nM,–
Cc1ccc(O)c(C)c1-n1c(N)c(C(N)=O)c2cnc(CCC3CC3)nc21 [Example 86],5.47 nM,–
CCCc1ncc2c(C(N)=O)c(N)n(-c3c(C)ccc(O)c3C)c2n1 [Example 87],3.35 nM,–
Cc1ccc(O)c(C)c1-n1c(N)c(C(N)=O)c2cnc(C3CCC(F)(F)CC3)nc21 [Example 88],16 nM,–
Cc1cnc2c(c1)c(C(N)=O)c(N)n2-c1c(C)c(O)cc(F)c1C [Example 89],3 nM,–
Cc1nc2c(cc1C(=O)O)c(C(N)=O)c(N)n2-c1c(C)c(O)cc(F)c1C [Example 90],90.7 nM,–
Cc1ccc(O)c(C)c1-n1c(N)c(C(N)=O)c2cc(NC(=O)Nc3ccccc3)c(C)nc21 [Example 91],41.7 nM,–
COc1c(O)ccc(C)c1-n1c(N)c(C(N)=O)c2cc(C)c(C)nc21 [Example 94],408 nM,–
Cc1cc2c(C(N)=O)c(N)n(-c3c(C)ccc(O)c3C)c2nc1N [Example 95],9.47 nM,–
Cc1cc(F)c(O)c(C)c1-n1c(N)c(C(N)=O)c2cc(OC3CCC3)c(C)nc21 [Example 96],9.4 nM,–
Cc1cc2c(C(N)=O)c(N)n(-c3c(C)cc(Br)c(O)c3C)c2nc1C [Example 97],187 nM,–
Cc1c(O)cc(F)c(C)c1-n1c(N)c(C(N)=O)c2cc(C#N)cnc21 [Example 98],8.11 nM,–
Cc1cc2c(C(N)=O)c(N)n(-c3c(C)c(F)cc(O)c3F)c2nc1C [Example 107],14.1 nM,–
Cc1c(O)cc(F)c(C)c1-n1c(N)c(C(N)=O)c2cc(N3CCOCC3)cnc21 [Example 117],192 nM,–
Cc1cc2c(C(N)=O)c(N)n(-c3c(C)c(O)cc(F)c3C)c2nc1-c1ccnn1C [Example 124],10.4 nM,–
Cc1cc2c(C(N)=O)c(N)n(-c3c(C)c(O)cc(F)c3C)c2nc1-c1ccccc1 [Example 137],36.2 nM,–
C=C(C)c1nc2c(cc1C)c(C(N)=O)c(N)n2-c1c(C)c(O)cc(F)c1C [Example 138],27 nM,–

# — patent publication EP4624471A1, “PKMYT1 INHIBITOR, PREPARATION METHOD THEREFOR, AND PHARMACEUTICAL COMPOSITION AND USE THEREOF” (Shanghai Qilu Pharmaceutical Research and Development …, priority 2022, dated 2024)
